The numbers were not newly measured in patent US20080287418A1, “Extended Release Compositions and Methods for Their Manufacture” (ASTRAZENECA AB, priority 2007, published 2008), which cites them from elsewhere.

Structures are written as SMILES.

As for `OCCOCCN1CCN(C2=Nc3ccccc3Sc3ccccc32)CC1` [quetiapine, 11-[4-[2-(2-hydroxyethoxy)ethyl]-1-piperazinyl]dibenzo[b,f][1,4]thiazepine], the Solubility in acid entry (acid) is given as “soluble in acid”. For the same compound, the Solubility in water result (water) was “slightly soluble in water”.
